The subject of this test is KRAS G12V dependent lung adenocarcinoma cell line, NCI-H441. As to the kind of experiment: Cellular pERK (Thr202/Tyr204) FRET/HTRF assay. The format is cell-based. The conditions noted are these: Homo sapiens, NCI-H441, cellular pERK (Thr202/Tyr204) HTRF, NCI-H441 cells. In short, it runs like this: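 Using a mix-and-read HTRF kit, phospho-ERK (Thr202/Tyr204) was detected in NCI-H441 lysates following 1 hr compound incubation at 37 °C, 5% CO2. Cells had been seeded overnight beforehand, and IC50 was derived by curve fitting.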
(In general: Time-resolved FRET reads energy transfer from a long-lived donor to a nearby acceptor.)

As to `Cc1c(F)c(N)cc(-c2ncc3c(N4CCCC[C@@H]5[C@@H](F)[C@@H]54)nc(OC[C@@]45CCCN4CC(=C(F)F)C5)nc3c2F)c1C(F)(F)F` [Example 395, 5-(2-(((S)-2-(difluoromethylene)tetrahydro-1H-pyrrolizin-7a(5H)-yl)methoxy)-8-fluoro-4-((1R,7S,8R)-8-fluoro-2-azabicyclo[5.1.0]octan-2-yl)pyrido[4,3-d]pyrimidin-7-yl)-2-fluoro-3-methyl-4-(trifluoromethyl)aniline], the IC50 – broadly, the concentration needed to halve the response being measured – lay in the range of 500 to 10000 nM.
Under `Cc1c(F)c(N)cc(-c2ncc3c(N4CCCC[C@H]5[C@H](F)[C@H]54)nc(OC[C@@]45CCCN4C/C(=C/F)C5)nc3c2F)c1C(F)(F)F` [Example 396, 2-fluoro-5-(8-fluoro-4-((1S,7R,8S)-8-fluoro-2-azabicyclo[5.1.0]octan-2-yl)-2-(((S,E)-2-(fluoromethylene)tetrahydro-1H-pyrrolizin-7a(5H)-yl)methoxy)pyrido[4,3-d]pyrimidin-7-yl)-3-methyl-4-(trifluoromethyl)aniline] stands 500 to 10000 nM; under `Cc1c(F)c(N)cc(-c2ncc3c(N4CCCC[C@@H]5[C@@H](F)[C@@H]54)nc(OC[C@@]45CCCN4C/C(=C/F)C5)nc3c2F)c1C(F)(F)F` [Example 397, 2-fluoro-5-(8-fluoro-4-((1R,7S,8R)-8-fluoro-2-azabicyclo[5.1.0]octan-2-yl)-2-(((S,E)-2-(fluoromethylene)tetrahydro-1H-pyrrolizin-7a(5H)-yl)methoxy)pyrido[4,3-d]pyrimidin-7-yl)-3-methyl-4-(trifluoromethyl)aniline], 500 to 10000 nM.
Regarding `Cc1c(F)c(N)cc(-c2ncc3c(N4CCCC[C@H]5[C@H](F)[C@H]54)nc(OC[C@@]45CCCN4C/C(=C\F)C5)nc3c2F)c1C(F)(F)F` [Example 398, 2-fluoro-5-(8-fluoro-4-((1S,7R,8S)-8-fluoro-2-azabicyclo[5.1.0]octan-2-yl)-2-(((S,Z)-2-(fluoromethylene)tetrahydro-1H-pyrrolizin-7a(5H)-yl)methoxy)pyrido[4,3-d]pyrimidin-7-yl)-3-methyl-4-(trifluoromethyl)aniline], the IC50 lay in the range of 50 to 500 nM.
For the compound `Cc1c(F)c(N)cc(-c2ncc3c(N4CCCC[C@@H]5[C@@H](F)[C@@H]54)nc(OC[C@@]45CCCN4C/C(=C\F)C5)nc3c2F)c1C(F)(F)F` [Example 399, 2-fluoro-5-(8-fluoro-4-((1R,7S,8R)-8-fluoro-2-azabicyclo[5.1.0]octan-2-yl)-2-(((S,Z)-2-(fluoromethylene)tetrahydro-1H-pyrrolizin-7a(5H)-yl)methoxy)pyrido[4,3-d]pyrimidin-7-yl)-3-methyl-4-(trifluoromethyl)aniline], the IC50 fell in the range of 500 to 10000 nM.
Under `[2H]C([2H])(Oc1nc(N2CCOC[C@H]3[C@H](F)[C@H]32)c2c(O)nc(-c3cc(N)cc4ccc(F)c(C#C)c34)c(F)c2n1)[C@@]12CCCN1C[C@H](F)C2` [Example 401, 7-(3-amino-8-ethynyl-7-fluoronaphthalen-1-yl)-8-fluoro-4-((1S,7S,8S)-8-fluoro-5-oxa-2-azabicyclo[5.1.0]octan-2-yl)-2-(((2R,7aS)-2-fluorotetrahydro-1H-pyrrolizin-7a(5H)-yl)methoxy-d2)pyrido[4,3-d]pyrimidin-5-ol] stands 500 to 10000 nM.
As for `C#Cc1c(F)ccc2cccc(-c3ncc4c(N5CCCC[C@H]6[C@H](F)[C@H]65)nc(OC[C@]56C/C(=C/F)CN5CCC65CC5)nc4c3F)c12` [Example 402, (R,Z)-7a′-(((7-(8-Ethynyl-7-fluoronaphthalen-1-yl)-8-fluoro-4-((1S,7R,8S)-8-fluoro-2-azabicyclo[5.1.0]octan-2-yl)pyrido[4,3-d]pyrimidin-2-yl)oxy)methyl)-6′-(fluoromethylene)hexahydrospiro[cyclopropane-1,1′-pyrrolizine]], the 50% inhibitory concentration (IC50) is less than 50 nM.
Under `C#Cc1c(F)ccc2cc(N)cc(-c3ncc4c(N5CCCC[C@H]6[C@H](F)[C@H]65)nc(OC[C@]56C/C(=C\F)CN5CCC65CC5)nc4c3F)c12` [Example 403, 5-Ethynyl-6-fluoro-4-(8-fluoro-4-((1S,7R,8S)-8-fluoro-2-azabicyclo[5.1.0]octan-2-yl)-2-(((R,E)-6′-(fluoromethylene)tetrahydrospiro[cyclopropane-1,1′-pyrrolizin]-7a′(5′H)-yl)methoxy)pyrido[4,3-d]pyrimidin-7-yl)naphthalen-2-amine] stands less than 50 nM; under `C#Cc1c(F)ccc2cc(N)cc(-c3ncc4c(N5CCCC[C@H]6[C@H](F)[C@H]65)nc(OC[C@]56C/C(=C/F)CN5CCC65CC5)nc4c3F)c12` [Example 404, 5-Ethynyl-6-fluoro-4-(8-fluoro-4-((1S,7R,8S)-8-fluoro-2-azabicyclo[5.1.0]octan-2-yl)-2-(((R,Z)-6′-(fluoromethylene)tetrahydrospiro[cyclopropane-1,1′-pyrrolizin]-7a′(5′H)-yl)methoxy)pyrido[4,3-d]pyrimidin-7-yl)naphthalen-2-amine], less than 50 nM.
The compound `C#Cc1c(F)ccc2cccc(-c3ncc4c(N5CCCC[C@H]6[C@H](F)[C@H]65)nc(OC[C@]56CC(=C(F)F)CN5CCC65CC5)nc4c3F)c12` [Example 405, (R)-6′-(Difluoromethylene)-7a′-(((7-(8-ethynyl-7-fluoronaphthalen-1-yl)-8-fluoro-4-((1S,7R,8S)-8-fluoro-2-azabicyclo[5.1.0]octan-2-yl)pyrido[4,3-d]pyrimidin-2-yl)oxy)methyl)hexahydrospiro[cyclopropane-1,1′-pyrrolizine]] displayed an IC50 of less than 50 nM.
Under `Nc1cc(Cl)c(C(F)(F)F)c(-c2ncc3c(N4CCCC[C@H]5[C@H](F)[C@H]54)nc(OC[C@]45C/C(=C/F)CN4CCC54CC4)nc3c2F)c1` [Example 406, 3-chloro-5-(8-fluoro-4-((1S,7R,8S)-8-fluoro-2-azabicyclo[5.1.0]octan-2-yl)-2-(((R,Z)-6′-(fluoromethylene)tetrahydrospiro [cyclopropane-1,1′-pyrrolizin]-7a′(5′H)-yl)methoxy)pyrido[4,3-d]pyrimidin-7-yl)-4-(trifluoromethyl)aniline] stands less than 50 nM; under `[2H]C([2H])(F)Oc1c(F)ccc2cccc(-c3ncc4c(N5CCCC[C@H]6[C@H](F)[C@H]65)nc(OC[C@]56CC(=C)CN5CCC65CC5)nc4c3F)c12` [Example 407, (R)-7a′-(((8-fluoro-7-(7-fluoro-8-(fluoromethoxy-d2)naphthalen-1-yl)-4-((1S,7R,8S)-8-fluoro-2-azabicyclo[5.1.0]octan-2-yl)pyrido[4,3-d]pyrimidin-2-yl)oxy)methyl)-6′-methylenehexahydrospiro[cyclopropane-1,1′-pyrrolizine]], less than 50 nM; under `[2H]C([2H])(F)Oc1c(F)ccc2cccc(-c3ncc4c(N5CCCC[C@H]6[C@H](F)[C@H]65)nc(OC[C@]56C/C(=C/F)CN5CCC65CC5)nc4c3F)c12` [Example 408, (R,Z)-7a′-(((8-fluoro-7-(7-fluoro-8-(fluoromethoxy-d2)naphthalen-1-yl)-4-((1S,7R,8S)-8-fluoro-2-azabicyclo[5.1.0]octan-2-yl)pyrido[4,3-d]pyrimidin-2-yl)oxy)methyl)-6′-(fluoromethylene)hexahydrospiro [cyclopropane-1,1′-pyrrolizine]], less than 50 nM.
Under `[2H]C([2H])(F)Oc1c(F)ccc2cc(N)cc(-c3ncc4c(N5CCCC[C@H]6[C@H](F)[C@H]65)nc(OC[C@]56C/C(=C/F)CN5CCC65CC5)nc4c3F)c12` [Example 409, 6-fluoro-4-(8-fluoro-4-((1S,7R,8S)-8-fluoro-2-azabicyclo[5.1.0]octan-2-yl)-2-(((R,Z)-6′-(fluoromethylene)tetrahydrospiro [cyclopropane-1,1′-pyrrolizin]-7a′(5′H)-yl)methoxy)pyrido[4,3-d]pyrimidin-7-yl)-5-(fluoromethoxy-d2)naphthalen-2-amine] stands less than 50 nM; under `[2H]C([2H])(Oc1nc(N2CCOC[C@H]3[C@H](F)[C@H]32)c2cnc(-c3cc(N)cc4ccc(C)c(C#C)c34)c(F)c2n1)[C@@]12CCCN1[C@H](C)[C@H](F)C2` [Example 410, 5-ethynyl-4-(8-fluoro-2-(((2R,3R,7aS)-2-fluoro-3-methyltetrahydro-1H-pyrrolizin-7a(5H)-yl)methoxy-d2)-4-((1S,7S,8S)-8-fluoro-5-oxa-2-azabicyclo[5.1.0]octan-2-yl)pyrido[4,3-d]pyrimidin-7-yl)-6-methylnaphthalen-2-amine], less than 50 nM.
In turn, `Nc1cc(Cl)c(C(F)(F)F)c(-c2ncc3c(N4CCCC[C@H]5[C@H](F)[C@H]54)nc(OC[C@]45CC(=C(F)F)CN4CCC54CC4)nc3c2F)c1` [Example 411, 3-chloro-5-(2-(((R)-6′-(difluoromethylene)tetrahydrospiro [cyclopropane-1,1′-pyrrolizin]-7a′(5′H)-yl)methoxy)-8-fluoro-4-((1S,7R,8S)-8-fluoro-2-azabicyclo[5.1.0]octan-2-yl)pyrido[4,3-d]pyrimidin-7-yl)-4-(trifluoromethyl)aniline] showed an IC50 of 500 to 10000 nM.
Under `Cc1c(F)c(N)cc(-c2ncc3c(N4CCCC[C@H]5[C@H](F)[C@H]54)nc(OC[C@]45CC(=C(F)F)CN4CCC54CC4)nc3c2F)c1C(F)(F)F` [Example 412, 5-(2-(((R)-6′-(difluoromethylene)tetrahydrospiro [cyclopropane-1,1′-pyrrolizin]-7a′(5′H)-yl)methoxy)-8-fluoro-4-((1S,7R,8S)-8-fluoro-2-azabicyclo[5.1.0]octan-2-yl)pyrido[4,3-d]pyrimidin-7-yl)-2-fluoro-3-methyl-4-(trifluoromethyl)aniline] stands 500 to 10000 nM.
